Key:
Type in all cases: cell-based, murine
[1] = system: S180 tumor cells; assay: MTT cell viability assay, S180 tumor cells; settings: S180 tumor cell line, 48 h
Description: (§1) The murine sarcoma-180 tumor cells (S180) (ATCC# TIB-66) and normal murine fibroblast cells (L-929) (ATCC# CCL-1) were cultured in suspension in RPMI 1640 and DMEM media (Sigma Chemical Co., MO), respectively, supplemented with 10% fetal calf serum, 100 µg/mL penicillin, and 100 µg/mL streptomycin. The cultures were incubated in a humidified incubator (Thermo Scientific) at 37°C with 5% CO2.
(§2) The cytotoxic effects of the amino acid ruthenium complexes were evaluated using an MTT assay with S180 tumor cells and L929 normal cells as described previously. Briefly, 1.0×10^5 S180 cells and 2.0×10^4 L929 cells were plated in 96-well tissue culture plates and treated with different concentrations of amino acid ruthenium complexes (0.2–200 µM) for 48 h. After treatment, 10 µL of MTT (5 mg mL^−1) was added to each well, and the plates were incubated at 37°C for an additional 3 h. The purple formazan crystals were dissolved in 50 µL of SDS, and the absorbance was determined at 545 nm using a Stat Fax 2100 microplate reader (Awareness Technology, Palm City, FL, USA). The cell viability was calculated as follows: viability (%) = (absorbance of the treated wells)/(absorbance of the control wells) ×100. The IC50 (complex concentration (µM) that results in a 50% reduction in cellular viability) was obtained from dose-response curves using GraphPad Prism 4.02 for Windows (GraphPad Software, San Diego, CA, USA).

[2] = system: caspase-8; assay: Caspase activity colorimetric assay (IETD-pNA); settings: S180 cells, 40 µM, 24 h; control 100%
Description: (§3) Direct measurement of the activity of caspases 3, 8, and 9 were performed using the ApoTarget Caspase 3, 8, and 9 Protease Assay (Invitrogen) according to the manufacturer's recommendations. After treatment with complex 2 (40 µM and 60 µM) for 24 h, the cells were lysed with chilled cell lysis buffer. The protein concentration was then measured using the BSA Protein Assay Kit (BioRad). An aliquot of the protein extract (75 µg) was mixed with 50 µL of 2X reaction buffer supplemented with 10 mM DTT and the substrates of DEVD-pNA (caspase-3), IETD-pNA (caspase-8), or LEHD-pNA (caspase-9). The mixtures were then incubated for 2 h at 37°C. Subsequently, the formation of p-nitroanilide in the samples was measured using an ELISA microplate reader at 405 nm. The increases in the activities of caspase-3, caspase-8, and caspase-9 were determined by comparing the results with the control.

[3] = system: bax; assay: Real-time RT-PCR gene expression, bax; settings: S180 cells, 40 µM, 6 h; normalized to β-actin
Description: (§4) The S180 cells were treated with 40 µM complex 2 for 6 h. Total RNA was extracted with Trizol reagent (Sigma-Aldrich, USA) following the manufacturer's protocol. Total RNA (2.0 µg) was used to produce complementary DNA (cDNA) with random primers (Applied Biosystems, USA) in a 20 µL reaction mixture according to the manufacturer's protocol.
(§5) Real-time PCR was carried out using a Line Gene K (Bioer Technology) instrument. Real-time PCR reactions were carried out in a 20 µL reaction mixture, including 2 µL of cDNA, 10 µL of SYBR Green PCR Master Mix (LGC Biotechnology, UK), and 2.0 µL of 400 nM forward and reverse primers. The PCR program was initiated at 95°C for 15 min followed by 40 cycles of 95°C for 15 s, 55°C for 15 s, and 72°C for 30 s. The data were analyzed according to the comparative Ct method and were normalized to the β-actin reference gene expression in each sample.

[4] = system: caspase-3; assay: Caspase activity colorimetric assay (DEVD-pNA); settings: S180 cells, 24 h, control 100%
Description: as §3

[5] = system: caspase 3; assay: Real-time RT-PCR gene expression, caspase 3; settings: S180 cells, 40 µM, 6 h; normalized to β-actin
Description: as §4, §5

[6] = system: Bak protein; assay: Western blot analysis of Bak protein; settings: S180 cells, 60 µM, 24 h; normalized to β-actin; control 5.08
Description: The S180 cells were treated with 40 µM and 60 µM complex 2 for 24 h. Untreated cells maintained in media only were used as the control. After treatment, the cells were washed with PBS and lysed with lysis buffer (Invitrogen). The samples were stored at −20°C until further analysis. The protein concentrations of the resulting lysates were determined using the Bradford assay. A total of 70 µg of protein extract was mixed with Laemmli loading buffer and subjected to 12% SDS-PAGE at 100 V for 2 h, followed by electroblotting to nitrocellulose membranes (0.45 µm) (Bio-Rad Laboratories, Inc.) at 400 mA for 1.5 h. […] The membranes were washed in TBS-T, incubated with an HRP-conjugated IgG secondary antibody (Santa Cruz Biotechnology Inc., 1∶1000 dilution) for 1 h, and washed with TBS-T. The immunoreactive bands were detected using an ECL western blotting substrate (Super Signal West Pico Substrate, Thermo Scientific), and the ECL signals were captured using a CCD camera (ImageQuant LAS 4000 mini; GE Healthcare). The optical density of the target protein bands was measured using IMAGE J software downloaded from the NIH website (http://rsb.info.nih.gov.ij/) to compare the protein levels. […]

[7] = system: caspase 9; assay: Real-time RT-PCR gene expression, caspase 9; settings: S180 cells, 40 µM, 6 h; normalized to β-actin
Description: as §4, §5

[8] = system: L929 normal cells; assay: MTT cell viability assay, L929 normal cells; settings: L929 normal cell line, 48 h
Description: as §1, §2

IC50 [1]: 31.2 ± 4.19 µM | activity of caspase-8 [2]: 127.22% | activity of caspase-3 ([4]; 40 µM): 136.05% | activity of caspase-3 ([4]; 60 µM): 170.24% | expression level of caspase 3 compared to control [5]: 2.55 fold | expression level of caspase 9 compared to control [7]: 1.83 fold
SMILES: F[P-](F)(F)(F)(F)F.NCC(=O)[O-].[Ru+2].c1ccc(-c2ccccn2)nc1.c1ccc(P(CCCCP(c2ccccc2)c2ccccc2)c2ccccc2)cc1 [Complex 2, [Ru(gly)(bipy)(dppb)]PF6]
expression level of the bax gene compared to untreated control [3]: 2.75 fold | expression level of the Bak protein [6]: 9.40 fold | IC50 [8]: 51.6 ± 1.22 µM

Reference: publication PMC4201456, “Cytoxicity and Apoptotic Mechanism of Ruthenium(II) Amino Acid Complexes in Sarcoma-180 Tumor Cells” (PLoS ONE, 2014)
